Test results published in patent US4740504A, “Antihyperlipidemic amine boranes” (United States Borax & Chemical Corp., priority 1987, dated 1988).
Like-named read-outs stand apart in the source and are kept apart here.

Columns and labels:
Sprague Dawley male rats = assay: Hypolipidemic activity in Sprague Dawley rats, oral dosing (serum cholesterol and triglyceride); assay type: in vivo
Experimental: (§1) N-n-Octadecyl-N,N-dimethylamine borane was suspended in an aqueous 1% carboxymethylcellulose solution, homogenized, and administered to CF1 male mice (~25 g.) intraperitoneally for 16 days or Sprague Dawley male rats (~350 g.) orally by an intubation needle for 14 days. On days 9 and 14 or 16, blood was obtained by tail vein bleeding and the serum separated by centrifugation for 3 minutes. The serum cholesterol levels were determined by a modification of the Liebermann-Burchard reaction. Serum was also collected on day 14 or 16 and the triglyceride content was determined by a Fisher-Hycel Triglyceride Test Kit.

[1] = test system: sn-Glycerol-3-phosphate acyl transferase; assay: Enzyme activity after in vivo dosing: sn-glycerol-3-phosphate acyl transferase; settings: 16 mg/kg/day
male CF1 mice = assay: Hypolipidemic activity in CF1 mice, intraperitoneal dosing (serum cholesterol and triglyceride); assay type: in vivo; settings: for response vs control in vivo at 20 mg/kg: Mus musculus, ip, Table I, 20 mg./kg./day i.p., male CF1 mice; for Serum Cholesterol Day 9 (X ± SD) / Serum Cholesterol Day 16 (X ± SD) / Serum Triglyceride Day 16 (X ± SD) / Serum Triglyceride Day 9 (X ± SD): Table III, CF1 mice, N = 6
Experimental: For determining hypolipidemic activity, the compounds were suspended in an aqueous 1% carboxymethylcellulose solution and tested at 5 or 20 mg./kg./day administered intraperitoneally to male CF1 mice (~25 g.). On days 9 and 16 blood was collected by tail vein bleeding and the serum separated by centrifugation for three minutes. Serum cholesterol levels were determined by a modified Liebermann-Burchard reaction. Serum triglyceride levels were also determined at 16 days using a Fisher-Hycel Triglyceride Test Kit.
The test was repeated at a dosage of 8 mg./kg./day.
as §1

[2] = molecular target: T1, ATP dependent citrate lyase (Mus musculus, UniProt Q91V92); assay: Enzyme activity after in vivo dosing: ATP dependent citrate lyase; settings: 16 mg/kg/day
T1 construct: from tissue
T1 sequence (Q91V92 1-1091): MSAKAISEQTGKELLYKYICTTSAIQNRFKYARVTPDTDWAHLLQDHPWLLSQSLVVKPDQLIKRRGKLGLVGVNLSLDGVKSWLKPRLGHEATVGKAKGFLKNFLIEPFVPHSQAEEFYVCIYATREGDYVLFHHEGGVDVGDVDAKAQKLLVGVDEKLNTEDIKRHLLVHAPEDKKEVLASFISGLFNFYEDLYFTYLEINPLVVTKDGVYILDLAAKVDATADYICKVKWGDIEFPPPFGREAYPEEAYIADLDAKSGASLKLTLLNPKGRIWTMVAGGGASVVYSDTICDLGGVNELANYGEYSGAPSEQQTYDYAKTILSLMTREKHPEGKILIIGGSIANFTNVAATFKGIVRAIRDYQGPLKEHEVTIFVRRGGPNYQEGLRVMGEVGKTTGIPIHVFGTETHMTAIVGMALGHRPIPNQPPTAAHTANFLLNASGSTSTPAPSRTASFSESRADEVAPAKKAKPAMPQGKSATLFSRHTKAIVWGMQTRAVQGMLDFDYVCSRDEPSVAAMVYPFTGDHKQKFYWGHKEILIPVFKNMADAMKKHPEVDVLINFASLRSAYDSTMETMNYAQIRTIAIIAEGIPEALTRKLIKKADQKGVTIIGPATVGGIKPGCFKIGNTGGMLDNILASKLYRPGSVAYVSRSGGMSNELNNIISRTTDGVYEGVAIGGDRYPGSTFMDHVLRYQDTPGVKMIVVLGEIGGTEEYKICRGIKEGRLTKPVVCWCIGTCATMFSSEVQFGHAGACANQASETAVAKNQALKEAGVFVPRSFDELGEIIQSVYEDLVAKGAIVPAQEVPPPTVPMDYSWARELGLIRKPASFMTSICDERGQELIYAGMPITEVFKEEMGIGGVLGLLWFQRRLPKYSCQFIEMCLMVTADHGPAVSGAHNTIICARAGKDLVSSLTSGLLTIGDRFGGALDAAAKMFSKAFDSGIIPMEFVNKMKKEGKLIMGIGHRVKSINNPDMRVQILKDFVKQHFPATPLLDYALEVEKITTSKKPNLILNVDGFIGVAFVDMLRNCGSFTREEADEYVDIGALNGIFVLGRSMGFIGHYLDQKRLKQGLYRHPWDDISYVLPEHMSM

[3] = molecular target: T2, Cholesterol 7α hydroxylase (Mus musculus, UniProt Q64505); assay: Enzyme activity after in vivo dosing: cholesterol 7α hydroxylase; settings: 16 mg/kg
T2 construct: from tissue; host or cells: liver (inferred; the enzyme is liver-specific)
T2 sequence (Q64505 whole entry): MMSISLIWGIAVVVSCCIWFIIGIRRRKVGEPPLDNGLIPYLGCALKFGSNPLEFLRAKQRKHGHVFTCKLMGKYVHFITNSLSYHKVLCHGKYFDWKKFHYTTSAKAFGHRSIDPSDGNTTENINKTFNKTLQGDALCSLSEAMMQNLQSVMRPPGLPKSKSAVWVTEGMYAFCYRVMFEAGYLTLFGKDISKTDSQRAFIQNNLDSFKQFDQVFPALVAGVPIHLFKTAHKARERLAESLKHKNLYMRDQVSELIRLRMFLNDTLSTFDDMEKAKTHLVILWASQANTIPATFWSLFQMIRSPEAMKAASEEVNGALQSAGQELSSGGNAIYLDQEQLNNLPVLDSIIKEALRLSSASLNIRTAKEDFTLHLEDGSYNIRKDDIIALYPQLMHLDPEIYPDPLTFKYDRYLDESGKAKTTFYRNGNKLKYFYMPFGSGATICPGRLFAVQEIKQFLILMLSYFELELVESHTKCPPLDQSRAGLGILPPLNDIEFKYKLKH

[4] = test system: hyperlipidemic induced mice; assay: Hypolipidemic activity in diet-induced hyperlipidemic mice; assay type: in vivo; settings: 8 mg./kg./day i.p., 12 days
Experimental: The same compound was tested in mice that had been placed on a commercial diet to produce a "hyperlipidemic" state. […] Serum cholesterol and triglyceride levels were measured at that time. A similar lowering of cholesterol and triglyceride levels in the hyperlipidemic-induced mice was observed.

[5] = test system: phosphatidate phosphohydrolase; assay: Enzymatic studies in vitro: phosphatidate phosphohydrolase; assay type: biochemical; settings: 200 μM
[6] = test system: sn-glycerol-3 phosphate acyl transferase; assay: Enzymatic studies in vitro: sn-glycerol-3 phosphate acyl transferase; assay type: biochemical
Cholesterol 7α hydrolase = molecular target: T3, Cholesterol 7α hydrolase (Mus musculus, UniProt Q64505); assay: Enzymatic studies in vitro: cholesterol 7α hydrolase; assay type: biochemical
T3 construct: from tissue; host or cells: liver (inferred; the enzyme is liver-specific)
T3 sequence (Q64505 whole entry): as above

[7] = test system: Hepatic lipoprotein lipase; assay: Enzymatic studies in vitro: hepatic lipoprotein lipase induced by heparin; assay type: biochemical
acetyl CoA synthetase = molecular target: T4, acetyl CoA synthetase (Mus musculus, UniProt Q9QXG4); assay: Enzymatic studies in vitro: acetyl CoA synthetase; assay type: biochemical; settings: at all concentrations tested
T4 construct: from tissue
T4 sequence (Q9QXG4 whole entry): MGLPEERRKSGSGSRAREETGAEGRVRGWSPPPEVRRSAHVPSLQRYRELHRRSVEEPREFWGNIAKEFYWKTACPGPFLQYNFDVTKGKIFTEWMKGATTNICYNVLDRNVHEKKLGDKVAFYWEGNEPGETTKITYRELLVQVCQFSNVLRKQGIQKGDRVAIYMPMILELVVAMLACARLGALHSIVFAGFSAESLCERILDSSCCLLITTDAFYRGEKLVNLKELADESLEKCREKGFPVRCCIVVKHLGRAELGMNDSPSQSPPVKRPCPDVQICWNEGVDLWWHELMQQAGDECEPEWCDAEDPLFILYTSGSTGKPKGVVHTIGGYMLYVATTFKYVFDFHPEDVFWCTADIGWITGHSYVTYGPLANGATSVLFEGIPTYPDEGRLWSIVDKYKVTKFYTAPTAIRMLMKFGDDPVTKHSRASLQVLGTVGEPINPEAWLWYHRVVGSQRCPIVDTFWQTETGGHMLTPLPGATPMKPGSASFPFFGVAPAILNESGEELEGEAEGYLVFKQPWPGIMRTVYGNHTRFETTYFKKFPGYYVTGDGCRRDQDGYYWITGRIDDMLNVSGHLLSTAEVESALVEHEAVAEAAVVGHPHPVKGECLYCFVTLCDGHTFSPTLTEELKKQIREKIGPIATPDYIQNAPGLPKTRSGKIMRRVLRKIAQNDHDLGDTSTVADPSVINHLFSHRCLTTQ

[8] = Sprague Dawley rats, oral administration at 20 mg/kg/day
[9] = Table III, 20 mg/kg/day orally, Sprague Dawley rats
[10] = CF1 male mice, 8 mg/kg/day I.P.

SMILES: [BH3-][N+](C)(C)CCCCCCCCCCCCCCCCCC [I, N-n-Octadecyl-N,N-Dimethylamine Borane]
- lowering of serum triglyceride levels (Sprague Dawley male rats; [8]): 35%
- reduction of serum cholesterol levels (Sprague Dawley male rats; [8]): 54%
- Serum Cholesterol Day 9 (X ± SD) (Sprague Dawley male rats; [9]): 82 ± 8% of Control
- Serum Cholesterol Day 14 (X ± SD) (Sprague Dawley male rats; [9]): 46 ± 5% of Control
- Serum Triglyceride Day 9 (X ± SD) (Sprague Dawley male rats; [9]): 82 ± 7% of Control
- Serum Triglyceride Day 14 (X ± SD) (Sprague Dawley male rats; [9]): 65 ± 6% of Control
- optimum dosage (Sprague Dawley male rats; in rats): about 20 mg./kg.
- reduction of sn-glycerol-3-phosphate acyl transferase activity [1]: 33%
- reduction of serum cholesterol levels (male CF1 mice; [10]): 41%
- reduction of serum triglyceride levels (male CF1 mice; [10]): 59%
- response vs control in vivo at 20 mg/kg (male CF1 mice; 216 h, day 9, read-out: Serum Cholesterol Day 9): 82%
- response vs control in vivo at 20 mg/kg (male CF1 mice; 384 h, day 16, read-out: Serum Cholesterol Day 16): 79%
- response vs control in vivo at 20 mg/kg (male CF1 mice; 384 h, day 16, read-out: Serum Triglyceride Day 16): 77%
- Serum Cholesterol Day 9 (X ± SD) (male CF1 mice; 2 mg/kg/day i.p.): 71 ± 6% of Control
- Serum Cholesterol Day 16 (X ± SD) (male CF1 mice; 2 mg/kg/day i.p.): 61 ± 7% of Control
- Serum Triglyceride Day 16 (X ± SD) (male CF1 mice; 2 mg/kg/day i.p.): 45 ± 4% of Control
- Serum Cholesterol Day 9 (X ± SD) (male CF1 mice; 4 mg/kg/day i.p.): 69 ± 5% of Control
- Serum Cholesterol Day 16 (X ± SD) (male CF1 mice; 4 mg/kg/day i.p.): 59 ± 5% of Control
- Serum Triglyceride Day 16 (X ± SD) (male CF1 mice; 4 mg/kg/day i.p.): 49 ± 5% of Control
- Serum Cholesterol Day 9 (X ± SD) (male CF1 mice; 8 mg/kg/day i.p.): 79 ± 7% of Control
- Serum Cholesterol Day 16 (X ± SD) (male CF1 mice; 8 mg/kg/day i.p.): 59 ± 4% of Control
- Serum Triglyceride Day 9 (X ± SD) (male CF1 mice; 8 mg/kg/day i.p.): 87 ± 7% of Control
- Serum Triglyceride Day 16 (X ± SD) (male CF1 mice; 8 mg/kg/day i.p.): 41 ± 3% of Control
- Serum Cholesterol Day 9 (X ± SD) (male CF1 mice; 12 mg/kg/day i.p.): 62 ± 6% of Control
- Serum Cholesterol Day 16 (X ± SD) (male CF1 mice; 12 mg/kg/day i.p.): 61 ± 5% of Control
- Serum Triglyceride Day 9 (X ± SD) (male CF1 mice; 12 mg/kg/day i.p.): 58 ± 6% of Control
- Serum Triglyceride Day 16 (X ± SD) (male CF1 mice; 12 mg/kg/day i.p.): 56 ± 7% of Control
- Serum Cholesterol Day 9 (X ± SD) (male CF1 mice; 16 mg/kg/day i.p.): 60 ± 5% of Control
- Serum Cholesterol Day 16 (X ± SD) (male CF1 mice; 16 mg/kg/day i.p.): 61 ± 6% of Control
- Serum Triglyceride Day 9 (X ± SD) (male CF1 mice; 16 mg/kg/day i.p.): 73 ± 8% of Control
- Serum Triglyceride Day 16 (X ± SD) (male CF1 mice; 16 mg/kg/day i.p.): 63 ± 8% of Control
- Serum Cholesterol Day 9 (X ± SD) (male CF1 mice; 20 mg/kg/day i.p.): 82 ± 7% of Control
- Serum Cholesterol Day 16 (X ± SD) (male CF1 mice; 20 mg/kg/day i.p.): 79 ± 7% of Control
- Serum Triglyceride Day 16 (X ± SD) (male CF1 mice; 20 mg/kg/day i.p.): 77 ± 7% of Control
- Serum Cholesterol Day 9 (X ± SD) (male CF1 mice; 40 mg/kg/day i.p.): 83 ± 6% of Control
- Serum Cholesterol Day 16 (X ± SD) (male CF1 mice; 40 mg/kg/day i.p.): 79 ± 8% of Control
- Serum Triglyceride Day 16 (X ± SD) (male CF1 mice; 40 mg/kg/day i.p.): 93 ± 6% of Control
- Serum Cholesterol Day 9 (X ± SD) (male CF1 mice; 60 mg/kg/day i.p.): 81 ± 6% of Control
- Serum Cholesterol Day 16 (X ± SD) (male CF1 mice; 60 mg/kg/day i.p.): 82 ± 6% of Control
- Serum Triglyceride Day 16 (X ± SD) (male CF1 mice; 60 mg/kg/day i.p.): 113 ± 4% of Control
- optimum dosage (male CF1 mice; in mice): about 8 mg./kg./day
- reduction of ATP dependent citrate lyase activity [2]: 62%
- reduction of cholesterol 7α hydroxylase activity [3]: 35%
- serum cholesterol level after treatment ([4]; hyperlipidemic induced mice (elevated to 375 mg %, control 128 mg %)): 180 mg %
- reduction of serum cholesterol level ([4]; hyperlipidemic induced mice): 52%
- serum triglyceride level after treatment ([4]; hyperlipidemic mice (elevated to 367 mg/dl, normal 137 mg/dl)): 187 mg %
- reduction of serum triglyceride level ([4]; hyperlipidemic mice): 49%
- reduction in phosphatidate phosphohydrolase activity [5]: 67%
- effect on sn-glycerol-3 phosphate acyl transferase activity [6]: unaffected
- effect on cholesterol 7α hydrolase activity (Cholesterol 7α hydrolase): unaffected
- reduction of hepatic lipoprotein lipase activity ([7]; 100 μM): 23%
- reduction of hepatic lipoprotein lipase activity ([7]; 200 μM): 23%
- reduction of acetyl CoA synthetase activity (acetyl CoA synthetase): more than 50%
